Source: patent publication US10093630B2, “Pyrazole compounds and methods of making and using same” (ABIDE THERAPEUTICS, INC., priority 2014, dated 2018)
Read-outs that look alike come from different tables or passages of the source.

Assays:
Experiment in all cases: In vitro competitive activity-based protein profiling (gel-based, FP-Rh or HT-01 probe)
Format in all cases: biochemical
MAGL = target: T1, MAGL (Mus musculus, UniProt O35678); details: for inhibition at 1 µM: 1 μM inhibitor; for inhibition at 10 µM: 10 μM inhibitor; for IC50: mouse brain membrane fraction or cell lysates, 30 min preincubation at 37° C., read-out: Mouse (IC50 value, nM) MAGL
T1 construct: Proteomes (mouse brain membrane fraction or cell lysates); from tissue; host or cells: mouse brain membrane fraction (or cell lysates, not specified)
T1 sequence (O35678 1-303): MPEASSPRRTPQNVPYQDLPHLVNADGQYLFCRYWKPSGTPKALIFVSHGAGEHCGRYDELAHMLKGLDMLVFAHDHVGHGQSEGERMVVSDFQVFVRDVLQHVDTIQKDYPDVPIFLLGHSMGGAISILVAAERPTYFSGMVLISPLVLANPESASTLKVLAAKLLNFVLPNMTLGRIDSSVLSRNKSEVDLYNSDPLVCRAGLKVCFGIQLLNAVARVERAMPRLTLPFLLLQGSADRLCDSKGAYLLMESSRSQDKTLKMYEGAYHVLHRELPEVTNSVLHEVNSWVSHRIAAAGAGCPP
Procedure, shortened: (§1)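 Mouse brain membrane proteome or cell lysate (1.0 mg/mL protein) was preincubated with inhibitor at varying concentrations for 30 min at 37° C, then labelled with FP-Rh or HT-01 for 30 min at 37° C. After SDS-PAGE, residual hydrolase activity was quantified as in-gel fluorescence of each band.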

ABHD6 = target: T2, ABHD6 (Mus musculus, UniProt Q8R2Y0); details: for inhibition at 1 µM: 1 μM inhibitor, read-out: % Inhibition at 1 μM, C = ABHD6; for inhibition at 10 µM: 10 μM inhibitor, read-out: % Inhibition at 10 μM, C = ABHD6; for IC50: mouse brain membrane fraction or cell lysates, 30 min preincubation at 37° C., read-out: Mouse (IC50 value, nM) ABHD6
T2 construct: Proteomes (mouse brain membrane fraction or cell lysates); from tissue; host or cells: mouse brain membrane fraction (or cell lysates, not specified)
T2 sequence (Q8R2Y0 1-336): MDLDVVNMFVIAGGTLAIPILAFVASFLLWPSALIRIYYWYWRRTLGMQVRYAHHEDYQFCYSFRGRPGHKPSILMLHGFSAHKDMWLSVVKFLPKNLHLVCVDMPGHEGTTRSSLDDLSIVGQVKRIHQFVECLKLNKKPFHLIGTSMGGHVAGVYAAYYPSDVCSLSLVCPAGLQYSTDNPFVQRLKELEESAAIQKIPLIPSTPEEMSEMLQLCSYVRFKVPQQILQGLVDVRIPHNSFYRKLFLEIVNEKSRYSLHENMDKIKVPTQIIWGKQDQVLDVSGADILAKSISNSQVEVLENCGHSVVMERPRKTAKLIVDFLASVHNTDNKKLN
Procedure, shortened: as §1

PLA2G7 = target: T3, PLA2G7 (Mus musculus, UniProt Q60963); details: for inhibition at 1 µM: 1 μM inhibitor, read-out: % Inhibition at 1 μM, D = PLA2G7; for inhibition at 10 µM: 10 μM inhibitor, read-out: % Inhibition at 10 μM, D = PLA2G7; for IC50: mouse brain membrane fraction or cell lysates, 30 min preincubation at 37° C.
T3 construct: Proteomes (mouse brain membrane fraction or cell lysates); from tissue; host or cells: mouse brain membrane fraction (or cell lysates, not specified)
T3 sequence (Q60963 22-440): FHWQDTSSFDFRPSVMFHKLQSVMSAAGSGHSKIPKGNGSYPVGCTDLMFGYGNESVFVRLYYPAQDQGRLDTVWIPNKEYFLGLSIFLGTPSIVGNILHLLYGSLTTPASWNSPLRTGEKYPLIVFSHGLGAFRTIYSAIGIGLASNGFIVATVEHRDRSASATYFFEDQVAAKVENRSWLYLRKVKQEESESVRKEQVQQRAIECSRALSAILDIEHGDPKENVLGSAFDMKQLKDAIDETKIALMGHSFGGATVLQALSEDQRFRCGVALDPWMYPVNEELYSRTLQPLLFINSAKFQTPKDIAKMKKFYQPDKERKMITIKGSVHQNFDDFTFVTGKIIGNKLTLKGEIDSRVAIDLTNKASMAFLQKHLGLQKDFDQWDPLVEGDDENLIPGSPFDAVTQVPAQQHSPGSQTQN
Procedure, shortened: as §1

FAAH = target: T4, FAAH (Mus musculus, UniProt O08914); details: for inhibition at 1 µM: 1 μM inhibitor, read-out: % Inhibition at 1 μM, B = FAAH; for inhibition at 10 µM: 10 μM inhibitor, read-out: % Inhibition at 10 μM, B = FAAH; for IC50: mouse brain membrane fraction or cell lysates, 30 min preincubation at 37° C., read-out: Mouse (IC50 value, nM) FAAH
T4 construct: Proteomes (mouse brain membrane fraction or cell lysates); from tissue; host or cells: mouse brain membrane fraction (or cell lysates, not specified)
T4 sequence (O08914 1-579): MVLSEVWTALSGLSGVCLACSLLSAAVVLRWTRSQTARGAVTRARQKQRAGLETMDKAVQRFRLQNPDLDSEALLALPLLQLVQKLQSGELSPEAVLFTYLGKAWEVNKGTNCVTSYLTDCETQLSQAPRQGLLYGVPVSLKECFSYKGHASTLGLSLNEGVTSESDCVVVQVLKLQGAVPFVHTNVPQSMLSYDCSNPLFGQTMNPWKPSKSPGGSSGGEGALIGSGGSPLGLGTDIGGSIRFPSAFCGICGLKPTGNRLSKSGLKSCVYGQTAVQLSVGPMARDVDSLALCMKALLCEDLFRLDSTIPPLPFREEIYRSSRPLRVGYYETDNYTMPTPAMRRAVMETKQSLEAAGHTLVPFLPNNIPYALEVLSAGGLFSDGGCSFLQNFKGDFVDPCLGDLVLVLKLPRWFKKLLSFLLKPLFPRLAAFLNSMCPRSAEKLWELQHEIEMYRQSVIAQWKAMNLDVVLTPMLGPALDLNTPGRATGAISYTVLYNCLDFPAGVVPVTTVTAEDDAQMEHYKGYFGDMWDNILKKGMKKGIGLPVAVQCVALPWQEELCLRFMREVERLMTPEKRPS
Procedure, shortened: as §1

Structure (SMILES)	inhibition at 1 µM (MAGL) [%]	inhibition at 10 µM (MAGL) [%]	inhibition at 1 µM (ABHD6) [%]	inhibition at 10 µM (ABHD6) [%]	IC50 (ABHD6) [nM]	inhibition at 1 µM (PLA2G7) [%]	inhibition at 10 µM (PLA2G7) [%]	inhibition at 1 µM (FAAH) [%]	inhibition at 10 µM (FAAH) [%]	IC50 (MAGL) [nM]	IC50 (PLA2G7) [nM]	IC50 (FAAH) [nM]	inhibition at 1 µM (MAGL; gel-based competitive ABPP) [%]	inhibition at 1 µM (ABHD6; gel-based competitive ABPP) [%]	inhibition at 1 µM (PLA2G7; gel-based competitive ABPP) [%]	inhibition at 1 µM (FAAH; gel-based competitive ABPP) [%]	inhibition at 10 µM (MAGL; gel-based competitive ABPP) [%]	inhibition at 10 µM (ABHD6; gel-based competitive ABPP) [%]	inhibition at 10 µM (PLA2G7; gel-based competitive ABPP) [%]	inhibition at 10 µM (FAAH; gel-based competitive ABPP) [%]
O=C(N1CCN(Cc2ccc3c(c2)OCO3)CC1)n1cc(-c2ccccc2)cn1 [Example 58, (4-(Benzo[d][1,3]dioxol-5-ylmethyl)piperazin-1-yl)(4-phenyl-1H-pyrazol-1-yl)methanone]	< 25	> 75	> 75	> 75	100 to 1000	> 75	> 75	> 75	> 75	–	–	–	–	–	–	–	–	–	–	–
O=C(N1CCN(Cc2ccc(Cl)cc2)CC1)n1cc(Cl)cn1 [Example 226, (4-Chloro-1H-pyrazol-1-yl)(4-(4-chlorobenzyl)piperazin-1-yl)methanone]	> 75	–	> 75	–	< 100	< 25	–	> 75	–	< 100	> 1000	< 100	–	–	–	–	–	–	–	–
N#Cc1cnn(C(=O)N2CCCN(Cc3ccc(Oc4ccccc4)cc3)CC2)c1 [Example 301, 1-(4-(4-Phenoxybenzyl)-1,4-diazepane-1-carbonyl)-1H-pyrazole-4-carbonitrile]	–	–	–	–	–	–	–	–	–	–	–	–	> 75	> 75	< 25	> 75	–	–	–	–
CCN(Cc1ccc(Cl)cc1)C(=O)n1cc(C#N)cn1 [Example 252, N-(4-Chlorobenzyl)-4-cyano-N-ethyl-1H-pyrazole-1-carboxamide]	–	–	–	–	> 1000	–	–	–	–	100 to 1000	–	< 100	> 75	< 25	< 25	> 75	> 75	> 75	25 to 75	> 75
O=C(N1CCN(Cc2ccc(-c3ccccc3)cc2Cl)CC1)n1cc(C(F)(F)F)cn1 [Example 143, (4-((3-Chlorobiphenyl-4-yl)methyl)piperazin-1-yl)(4-(trifluoromethyl)-1H-pyrazol-1-yl)methanone]	> 75	> 75	> 75	> 75	100 to 1000	25 to 75	> 75	> 75	> 75	< 100	–	< 100	–	–	–	–	–	–	–	–
O=C(c1cnn(C(=O)N2CCN(Cc3ccncc3)CC2)c1)N1CCCC1 [Example 79, (4-(Pyridin-4-ylmethyl)piperazin-1-yl)(4-(pyrrolidine-1-carbonyl)-1H-pyrazol-1-yl)methanone]	–	< 25	25 to 75	> 75	–	< 25	> 75	–	25 to 75	–	–	–	–	–	–	–	–	–	–	–
COc1cccc(CN2CCN(C(=O)n3cc(C(F)(F)F)cn3)CC2)c1 [Example 271, (4-(3-Methoxybenzyl)piperazin-1-yl)(4-(trifluoromethyl)-1H-pyrazol-1-yl)methanone]	–	–	–	–	< 100	–	–	–	–	< 100	< 100	< 100	> 75	> 75	> 75	> 75	–	–	–	–
N#Cc1cnn(C(=O)N2CCN(Cc3ccc(C(=O)N4CCCCC4)cc3F)CC2)c1 [Example 284, 1-(4-(2-Fluoro-4-(piperidine-1-carbonyl)benzyl)piperazine-1-carbonyl)-1H-pyrazole-4-carbonitrile]	–	–	–	–	–	–	–	–	–	–	–	–	> 75	> 75	> 75	> 75	> 75	> 75	> 75	> 75
O=C(c1ccccc1)N1CCN(C(=O)n2cc(C(F)(F)F)cn2)CC1 [Example 153, (4-Benzoylpiperazin-1-yl)(4-(trifluoromethyl)-1H-pyrazol-1-yl)methanone]	> 75	> 75	< 25	> 75	–	> 75	> 75	< 25	25 to 75	–	–	–	–	–	–	–	–	–	–	–
CN(CCN(C)C(=O)n1cc(C(F)(F)F)cn1)C(=O)c1ccccc1 [Example 160, N-methyl-N-(2-(N-methylbenzamido)ethyl)-4-(trifluoromethyl)-1H-pyrazole-1-carboxamide]	< 25	> 75	< 25	> 75	–	> 75	> 75	> 75	> 75	–	–	–	–	–	–	–	–	–	–	–
CN(Cc1cccc(-c2ccncc2)c1)C(=O)n1cc(Cl)cn1 [Example 220, 4-Chloro-N-methyl-N-(3-(pyridin-4-yl)benzyl)-1H-pyrazole-1-carboxamide]	> 75	> 75	> 75	> 75	100 to 1000	25 to 75	> 75	> 75	> 75	< 100	> 1000	< 100	–	–	–	–	–	–	–	–
O=C(N1CCN(Cc2cccc(OCc3ccccc3)c2)CC1)n1cccn1 [Example 296, (4-(3-(Benzyloxy)benzyl)piperazin-1-yl)(1H-pyrazol-1-yl)methanone]	–	–	–	–	–	–	–	–	–	–	–	–	> 75	> 75	< 25	> 75	–	–	–	–
CN1CCN(C(=O)n2cc(Cl)cn2)CC1 [Example 185, (4-Chloro-1H-pyrazol-1-yl)(4-methylpiperazin-1-yl)methanone]	< 25	25 to 75	> 75	> 75	–	< 25	> 75	< 25	> 75	–	–	–	–	–	–	–	–	–	–	–
